Measurements reported in ChEMBL document CHEMBL1136582, “Identification of a high-affinity phosphopeptide inhibitor of Stat3” (Bioorg Med Chem Lett, 2003).
Square brackets hold non-standard residues; d marks the D form. Peptide text beside a SMILES is read from it. * marks the point of attachment. ξ: configuration not given here. Phe(4-tetrazol-5-yl) = N[C@@H](Cc1ccc(-c2nnn[nH]2)cc1)C(=O)O; Phe(4-COOH) = N[C@@H](Cc1ccc(C(=O)O)cc1)C(=O)O; pY = N[C@@H](Cc1ccc(OP(=O)(O)O)cc1)C(=O)O; X1 = NC(=O)[C@H](CO)NC[C@H](CC(=O)O)N*; ξA = CC(N)C(=O)O

The compounds below were run against Signal transducer and activator of transcription 3 (Homo sapiens, UniProt P40763) (assay: Inhibition of Stat3 (Signal transduction and activator of transcription 3) dimerization measured by EMSAs (Electrophoretic mobility shift assay)).
Signal transducer and activator of transcription 3, sequence (P40763 whole entry): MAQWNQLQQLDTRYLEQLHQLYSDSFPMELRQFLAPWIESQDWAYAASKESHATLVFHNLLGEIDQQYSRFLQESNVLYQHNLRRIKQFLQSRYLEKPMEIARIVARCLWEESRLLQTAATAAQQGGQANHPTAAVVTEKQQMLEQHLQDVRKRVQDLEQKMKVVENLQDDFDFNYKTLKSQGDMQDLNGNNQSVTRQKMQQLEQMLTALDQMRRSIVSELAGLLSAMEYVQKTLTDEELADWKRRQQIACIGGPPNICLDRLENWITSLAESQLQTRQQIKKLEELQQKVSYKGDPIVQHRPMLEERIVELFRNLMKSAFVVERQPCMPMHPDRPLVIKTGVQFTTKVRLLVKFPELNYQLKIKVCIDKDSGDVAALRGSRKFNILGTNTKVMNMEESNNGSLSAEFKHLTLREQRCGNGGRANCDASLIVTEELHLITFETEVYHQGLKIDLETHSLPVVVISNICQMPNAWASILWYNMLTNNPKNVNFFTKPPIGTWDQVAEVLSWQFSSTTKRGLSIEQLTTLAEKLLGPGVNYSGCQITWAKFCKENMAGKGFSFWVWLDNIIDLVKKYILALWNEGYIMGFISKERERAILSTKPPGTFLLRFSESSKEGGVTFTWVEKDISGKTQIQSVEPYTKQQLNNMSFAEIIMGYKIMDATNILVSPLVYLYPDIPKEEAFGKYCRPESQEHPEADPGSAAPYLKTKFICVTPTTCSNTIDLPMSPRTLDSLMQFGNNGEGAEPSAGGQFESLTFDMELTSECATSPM

SMILES | IC50
CC(=O)N[C@@H](Cc1ccc(OP(=O)(O)O)cc1)C(=O)N[C@@H](CC(C)C)C(=O)N1CCC[C@H]1C(=O)N[C@@H](C)C(=O)N[C@H](C(=O)N[C@H](C(N)=O)C(C)C)[C@@H](C)O (Ac-[pY]LPATV-NH2) | > 6 µM
CC(=O)N[C@@H](Cc1ccc(OP(=O)(O)O)cc1)C(=O)N[C@@H](CCC(N)=O)C(=O)N[C@@H](CCCCN)C(=O)N[C@@H](CCC(N)=O)C(=O)N[C@H](C(=O)N[C@@H](CCCN=C(N)N)C(N)=O)[C@@H](C)O (Ac-[pY]QKQTR-NH2) | 8 µM
CC(=O)N[C@@H](Cc1ccc(OP(=O)(O)O)cc1)C(=O)N[C@@H](CC(C)C)C(=O)N1CCC[C@H]1C(N)=O (Ac-[pY]-Leu-Pro-NH2) | > 6 µM
CSCC[C@H](NC(=O)[C@H](C)NC(=O)[C@H](CCC(N)=O)NC(=O)[C@@H]1CCCN1C(=O)[C@H](CCCN=C(N)N)NC(=O)[C@H](Cc1ccc(OP(=O)(O)O)cc1)NC(C)=O)C(N)=O (Ac-[pY]RPQAM-NH2) | 1 µM
CC(=O)N[C@@H](Cc1ccc(OP(=O)(O)O)cc1)C(=O)N[C@@H](CC(C)C)C(=O)N1CCC[C@H]1C(=O)N[C@@H](CCC(=O)O)C(=O)N[C@H](C(=O)N[C@H](C(N)=O)C(C)C)[C@@H](C)O (Ac-[pY]LPETV-NH2) | > 6 µM
CSCC[C@H](NC(=O)[C@H](Cc1ccc(OP(=O)(O)O)cc1)NC(C)=O)C(=O)N1CCC[C@H]1C(=O)N[C@@H](CCC(N)=O)C(N)=O (Ac-[pY]MPQ-NH2) | 1.5 µM
CC(=O)N[C@@H](Cc1ccc(OP(=O)(O)O)cc1)C(=O)N[C@@H](CC(C)C)C(=O)N1CCC[C@H]1C(=O)N[C@@H](CCC(N)=O)C(=O)N[C@@H](C)C(=O)N[C@H](C(N)=O)C(C)C (Ac-[pY]LPQAV-NH2) | 0.8 µM
CC(=O)N[C@@H](Cc1ccc(OP(=O)(O)O)cc1)C(=O)N[C@@H](CCCN=C(N)N)C(=O)N[C@@H](Cc1cnc[nH]1)C(=O)N[C@@H](CCC(N)=O)C(=O)N[C@H](C(=O)N1CCC[C@H]1C(N)=O)C(C)C (Ac-[pY]RHQVP-NH2) | 6 µM
CSCC[C@H](NC(=O)[C@H](CCC(N)=O)NC(=O)[C@@H]1CCCN1C(=O)[C@H](CCCCN)NC(=O)[C@H](Cc1ccc(OP(=O)(O)O)cc1)NC(C)=O)C(=O)N[C@@H](Cc1cnc[nH]1)C(N)=O (Ac-[pY]KPQMH-NH2) | 0.4 µM
CC(=O)N[C@@H](Cc1ccc(C(=O)O)cc1)C(=O)N[C@@H](CC(C)C)C(=O)N1CCC[C@H]1C(=O)N[C@@H](CCC(N)=O)C(=O)N[C@H](C(=O)N[C@H](C(N)=O)C(C)C)[C@@H](C)O (Ac-[Phe(4-COOH)]LPQTV-NH2) | > 6 µM
CC(=O)N[C@@H](Cc1ccc(OP(=O)(O)O)cc1)C(=O)N[C@@H](CC(C)C)C(=O)NC(C)C(=O)N[C@@H](CCC(N)=O)C(=O)N[C@H](C(=O)N[C@H](C(N)=O)C(C)C)[C@@H](C)O (some centres not stated) (Ac-[pY]L[ξA]QTV-NH2) | 4 µM
CC(=O)N[C@@H](Cc1ccc(OP(=O)(O)O)cc1)C(=O)N[C@@H](CC(C)C)C(=O)N1CCC[C@H]1C(=O)N[C@@H](CCC(N)=O)C(=O)N[C@H](C(=O)N[C@@H](C)C(=O)O)[C@@H](C)O (Ac-[pY]LPQTA-OH) | 0.4 µM
CC(=O)N[C@@H](Cc1ccc(OP(=O)(O)O)cc1)C(=O)N[C@@H](Cc1ccccc1)C(=O)N[C@@H](CCCCN)C(=O)N[C@@H](CCC(N)=O)C(=O)N[C@@H](CC(N)=O)C(=O)N[C@@H](CS)C(N)=O (Ac-[pY]FKQNC-NH2) | 60 µM
CC(=O)N[C@@H](Cc1ccc(OP(=O)(O)O)cc1)C(=O)N[C@@H](CC(C)C)C(=O)N[C@@H](CCCN=C(N)N)C(=O)N[C@@H](CS)C(=O)N[C@H](CN[C@@H](CO)C(N)=O)CC(=O)O (Ac-[pY]LRC-X1) | 80 µM
CC(=O)N[C@@H](Cc1ccc(OP(=O)(O)O)cc1)C(=O)N[C@@H](CCC(N)=O)C(=O)N1CCC[C@H]1C(=O)N[C@@H](CCC(N)=O)C(=O)N[C@@H](C)C(=O)N[C@@H](CCCCN)C(N)=O (Ac-[pY]QPQAK-NH2) | 6 µM
CC(=O)N[C@@H](Cc1ccc(OP(=O)(O)O)cc1)C(=O)N[C@@H](CC(C)C)C(=O)N1CCC[C@H]1C(=O)N[C@@H](CC(N)=O)C(=O)N[C@H](C(=O)N[C@H](C(N)=O)C(C)C)[C@@H](C)O (Ac-[pY]LPNTV-NH2) | 2 µM
CC(=O)N[C@@H](Cc1ccc(OP(=O)(O)O)cc1)C(=O)N[C@@H](CO)C(=O)N[C@@H](CC(=O)O)C(=O)NCC(=O)N[C@@H](CC(N)=O)C(=O)N[C@@H](Cc1ccccc1)C(N)=O (Ac-[pY]SDGNF-NH2) | > 150 µM
CC(=O)N[C@@H](Cc1ccc(OP(=O)(O)O)cc1)C(=O)N[C@@H](CO)C(=O)N[C@H](C(=O)N[C@H](C(=O)N[C@H](C(=O)N[C@@H](Cc1c[nH]cn1)C(N)=O)C(C)C)C(C)C)[C@@H](C)O (Ac-[pY]STVVH-NH2) | > 150 µM
CC(=O)N[C@@H](Cc1ccc(-c2nn[nH]n2)cc1)C(=O)N[C@@H](CC(C)C)C(=O)N1CCC[C@H]1C(=O)N[C@@H](CCC(N)=O)C(=O)N[C@H](C(=O)N[C@H](C(N)=O)C(C)C)[C@@H](C)O (Ac-[Phe(4-tetrazol-5-yl)]LPQTV-NH2) | > 6 µM
CC(=O)N[C@@H](Cc1ccc(OP(=O)(O)O)cc1)C(=O)N[C@@H](C)C(=O)N1CCC[C@H]1C(=O)N[C@@H](CCC(N)=O)C(=O)N[C@H](C(=O)N[C@H](C(N)=O)C(C)C)[C@@H](C)O (Ac-[pY]APQTV-NH2) | 1.6 µM
CC(=O)N[C@@H](Cc1ccc(OP(=O)(O)O)cc1)C(=O)N[C@@H](CC(C)C)C(=O)N[C@@H](CCCCN)C(=O)N[C@@H](CCC(N)=O)C(=O)N[C@@H](CCC(=O)O)C(=O)N[C@@H](CO)C(N)=O (Ac-[pY]LKQES-NH2) | 6 µM
CC(=O)N[C@@H](Cc1ccc(OP(=O)(O)O)cc1)C(=O)N[C@H](C(=O)N[C@@H](CC(C)C)C(=O)N[C@@H](CCC(N)=O)C(=O)NCC(=O)N[C@@H](CC(=O)O)C(N)=O)C(C)C (Ac-[pY]VLQGD-NH2) | 8 µM
